The values below come from PubChem BioAssay AID1259407 (Chemical Carcinogenesis Research Information System (CCRIS), 2018).

The subject of the series is CCRIS mutagenicity, Ames/micronucleus/aberration tests. The experiment in a line: CCRIS mutagenicity studies.
Setting [1] is: Test System: AMES SALMONELLA TYPHIMURIUM, Strain/Indicator: TA98, Metabolic Activation: NONE, Method: PREINCUBATION
Setting [2] is: Test System: AMES SALMONELLA TYPHIMURIUM, Strain/Indicator: TA100, Metabolic Activation: NONE, Method: PREINCUBATION
Where [3] appears, read: Test System: AMES SALMONELLA TYPHIMURIUM, Strain/Indicator: TA1535, Metabolic Activation: NONE, Method: PREINCUBATION
[4] abbreviates: Test System: AMES SALMONELLA TYPHIMURIUM, Strain/Indicator: TA1537, Metabolic Activation: NONE, Method: PREINCUBATION
Where [5] appears, read: Test System: AMES SALMONELLA TYPHIMURIUM, Strain/Indicator: TA98, Metabolic Activation: NONE, Method: STANDARD PLATE.
Setting [6] is: Test System: AMES SALMONELLA TYPHIMURIUM, Strain/Indicator: TA100, Metabolic Activation: NONE, Method: STANDARD PLATE.
[7] abbreviates: Test System: AMES SALMONELLA TYPHIMURIUM, Strain/Indicator: TA98, Metabolic Activation: RAT, LIVER, S-9, AROCLOR 1254, Method: STANDARD PLATE.

Each structure is given as a SMILES string. Activity calls are given as the source filed them. No rule for the calls is given here.

As for `Cc1ccc(N=C=O)cc1N=C=O`, the mutagenic call reads like this: (End Point: IN VITRO CHROMOSOMAL ABERRATIONS, Test System: CHL CELLS, Metabolic Activation: RAT, LIVER, S-9, SODIUM PHENOBARBITAL AND 5,6-BENZOFLAVONE) “inactive; negative; authors report equivocal results for ploidy changes at the highest dos”; (End Point: IN VITRO CHROMOSOMAL ABERRATIONS, Test System: CHO CELLS, Metabolic Activation: RAT, LIVER, S-9, AROCLOR 1254) “inactive; negative; precipitation occurred at 500 and 750 ug/ml”; (Test System: AMES SALMONELLA TYPHIMURIUM, Strain/Indicator: TA97, Metabolic Activation: HAMSTER, LIVER, S-9, AROCLOR 1254 (10%), Method: PREINCUBATION) “inactive; negative”; (Test System: AMES SALMONELLA TYPHIMURIUM, Strain/Indicator: TA97, Metabolic Activation: NONE, Method: PREINCUBATION) “inactive; negative”; (Test System: AMES SALMONELLA TYPHIMURIUM, Strain/Indicator: TA97, Metabolic Activation: RAT, LIVER, S-9, AROCLOR 1254 (10%), Method: PREINCUBATION) “inactive; negative”; (Test System: AMES SALMONELLA TYPHIMURIUM, Strain/Indicator: TA98, Metabolic Activation: HAMSTER, LIVER, S-9, AROCLOR 1254 (10%), Method: PREINCUBATION) “active; positive”. Further, the mutagenic call under setting [1] is “inactive; negative”; the mutagenic call (Test System: AMES SALMONELLA TYPHIMURIUM, Strain/Indicator: TA98, Metabolic Activation: RAT LIVER S-9, AROCLOR 1254 (10 OR 30%), Method: STANDARD PLATE) was “active; positive”; the mutagenic call (Test System: AMES SALMONELLA TYPHIMURIUM, Strain/Indicator: TA98, Metabolic Activation: RAT LIVER S-9, PHENOBARBITAL AND BETA-NAPHTHOFLAVONE, Method: PREINCUBATION) is “inactive; negative”; the mutagenic call (Test System: AMES SALMONELLA TYPHIMURIUM, Strain/Indicator: TA98, Metabolic Activation: RAT, LIVER, S-9, AROCLOR 1254 (10%), Method: PREINCUBATION) was “active; positive”; the mutagenic call (Test System: AMES SALMONELLA TYPHIMURIUM, Strain/Indicator: TA100, Metabolic Activation: HAMSTER, LIVER, S-9, AROCLOR 1254 (10%), Method: PREINCUBATION) is “active; positive”; the mutagenic call under setting [2] is “inactive; negative”. For the same compound, the mutagenic call is, setting by setting: (Test System: AMES SALMONELLA TYPHIMURIUM, Strain/Indicator: TA100, Metabolic Activation: RAT, LIVER, S-9, AROCLOR 1254 (10%), Method: PREINCUBATION) “active; positive”; (Test System: AMES SALMONELLA TYPHIMURIUM, Strain/Indicator: TA1535, Metabolic Activation: HAMSTER, LIVER, S-9, AROCLOR 1254 (10%), Method: PREINCUBATION) “inactive; negative”; under setting [3], “inactive; negative”; (Test System: AMES SALMONELLA TYPHIMURIUM, Strain/Indicator: TA1535, Metabolic Activation: RAT LIVER S-9, PHENOBARBITAL AND BETA-NAPHTHOFLAVONE, Method: PREINCUBATION) “inactive; negative”; (Test System: AMES SALMONELLA TYPHIMURIUM, Strain/Indicator: TA1535, Metabolic Activation: RAT, LIVER, S-9, AROCLOR 1254 (10%), Method: PREINCUBATION) “inactive; negative”; under setting [4], “inactive; negative”. Besides, the mutagenic call reads like this: (Test System: AMES SALMONELLA TYPHIMURIUM, Strain/Indicator: TA1537, Metabolic Activation: RAT LIVER S-9, AROCLOR 1254 (10 OR 30%), Method: STANDARD PLATE) “active; positive”; (Test System: AMES SALMONELLA TYPHIMURIUM, Strain/Indicator: TA1537, Metabolic Activation: RAT LIVER S-9, PHENOBARBITAL AND BETA-NAPHTHOFLAVONE, Method: PREINCUBATION) “inactive; negative”; (Test System: E.COLI, Strain/Indicator: WP2UVRA, Metabolic Activation: NONE, Method: PREINCUBATION) “inactive; negative”; (Test System: E.COLI, Strain/Indicator: WP2UVRA, Metabolic Activation: RAT LIVER S-9, PHENOBARBITAL AND BETA-NAPHTHOFLAVONE, Method: PREINCUBATION) “inactive; negative”; (Test System: MOUSE LYMPHOMA, Strain/Indicator: L5178Y (TK+/TK-), Metabolic Activation: NONE, Method: SUSPENSION/PLATE) “active; positive”; (Test System: MOUSE LYMPHOMA, Strain/Indicator: L5178Y (TK+/TK-), Metabolic Activation: RAT, LIVER, S-9, AROCLOR 1254, Method: SUSPENSION/PLATE) “active; positive”.
Take `O=Nc1ccccc1-c1ccccc1`: the mutagenic call is, setting by setting: under setting [5], “inactive; negative”; under setting [6], “active; positive”.
In the case of `C[N+]1([O-])CCC[C@H]1c1cccnc1` (stereo partly specified), the mutagenic call reads like this: under setting [1], “inactive; negative”; (Test System: AMES SALMONELLA TYPHIMURIUM, Strain/Indicator: TA98, Metabolic Activation: RAT, LIVER, S-9, AROCLOR 1254 (5%), Method: PREINCUBATION) “inactive; negative”; under setting [2], “inactive; negative”; (Test System: AMES SALMONELLA TYPHIMURIUM, Strain/Indicator: TA100, Metabolic Activation: RAT, LIVER, S-9, AROCLOR 1254 (5%), Method: PREINCUBATION) “inactive; negative”; under setting [3], “inactive; negative”; (Test System: AMES SALMONELLA TYPHIMURIUM, Strain/Indicator: TA1535, Metabolic Activation: RAT, LIVER, S-9, AROCLOR 1254 (5%), Method: PREINCUBATION) “inactive; negative”. Moreover, the mutagenic call is “inactive; negative” under setting [4]; “inactive; negative” (Test System: AMES SALMONELLA TYPHIMURIUM, Strain/Indicator: TA1537, Metabolic Activation: RAT, LIVER, S-9, AROCLOR 1254 (5%), Method: PREINCUBATION); “inactive; negative” (Test System: AMES SALMONELLA TYPHIMURIUM, Strain/Indicator: TA1538, Metabolic Activation: NONE, Method: PREINCUBATION); “inactive; negative” (Test System: AMES SALMONELLA TYPHIMURIUM, Strain/Indicator: TA1538, Metabolic Activation: RAT, LIVER, S-9, AROCLOR 1254 (5%), Method: PREINCUBATION).
Take `Cc1nc2ccc3c(nc(N)n3C)c2nc1C`: the mutagenic call under setting [7] is “active; positive”.
Take `Oc1ccc(Cc2ccc(O)cc2)cc1`: the mutagenic call reads like this: (End Point: In vitro micronucleus, Test System: HepG2 cells, Metabolic Activation: None) “inactive; negative”; (Test System: Ames Salmonella typhimurium, Strain/Indicator: TA98, Metabolic Activation: None, Method: Preincubation) “inactive; negative”; (Test System: Ames Salmonella typhimurium, Strain/Indicator: TA98, Metabolic Activation: Rat, Liver, S-9, Aroclor 1254, Method: Preincubation) “inactive; negative”; (Test System: Ames Salmonella typhimurium, Strain/Indicator: TA100, Metabolic Activation: None, Method: Preincubation) “inactive; negative”; (Test System: Ames Salmonella typhimurium, Strain/Indicator: TA100, Metabolic Activation: Rat, Liver, S-9, Aroclor 1254, Method: Preincubation) “inactive; negative”; (Test System: Ames Salmonella typhimurium, Strain/Indicator: TA1535, Metabolic Activation: None, Method: Preincubation) “inactive; negative”. Moreover, the mutagenic call runs as follows: (Test System: Ames Salmonella typhimurium, Strain/Indicator: TA1535, Metabolic Activation: Rat, Liver, S-9, Aroclor 1254, Method: Preincubation) “inactive; negative”; (Test System: Ames Salmonella typhimurium, Strain/Indicator: TA1537, Metabolic Activation: None, Method: Preincubation) “inactive; negative”; (Test System: Ames Salmonella typhimurium, Strain/Indicator: TA1537, Metabolic Activation: Rat, Liver, S-9, Aroclor 1254, Method: Preincubation) “inactive; negative”; (Test System: E. coli, Strain/Indicator: W2 uvrA pKM101, Metabolic Activation: None, Method: Preincubation) “inactive; negative”; (Test System: E. coli, Strain/Indicator: W2 uvrA pKM101, Metabolic Activation: Rat, Liver, S-9, Aroclor 1254, Method: Preincubation) “inactive; negative”.
With `CC(=O)OC1Cc2ccc3ccc4cccc5cc1c2c3c45` (stereo unspecified), the mutagenic call is “active; positive” under setting [5] and “active; positive” under setting [6].
In the case of `NC(=O)CCC(=O)Nc1cc(Cl)c(Cl)c(Cl)c1`, the mutagenic call under setting [5] is “inactive; negative”; the mutagenic call under setting [7] was “inactive; negative”; the mutagenic call under setting [6] was “inactive; negative”; the mutagenic call (Test System: AMES SALMONELLA TYPHIMURIUM, Strain/Indicator: TA100, Metabolic Activation: RAT, LIVER, S-9, AROCLOR 1254, Method: STANDARD PLATE) is “inactive; negative”.
`O=C(Nc1ccc(Br)cc1)c1csc([N+](=O)[O-])c1`: the mutagenic call by setting is: under setting [5], “active; positive”; under setting [6], “active; positive”.
